Measured values published in US20250243219A1, “MACROCYCLIC COMPOUNDS AND USES THEREOF” (Cypralis Limited, priority 2022, published 2025).

Tests used:
[1] = Pharmacokinetics in mice, subcutaneous administration; format: in vivo, mice (strain FVB/N); settings: subcutaneous 10 mg/kg; for Tmax / Cmax / half-life: sc
Method: Test compounds were administered to rodents (mice or rats) either orally, subcutaneously or intravenously. To determine blood or plasma concentrations blood samples were taken at different time points and analysed for the concentration of test compound by LC/MS. Brain concentrations were measured by sacrificing animals and LC/MS analysis of brain homogenate. FIG. 3 illustrates graphs for the concentration (ng/ml) Compound (2) in blood, blood plasma and in the brain at 30 minutes to 7 hours after the same dosage administered sub-cutaneously.

[2] = Pharmacokinetics in mice, oral dose; format: in vivo, mice (strain FVB/N); settings: oral 10 mg/kg
Method: Test compounds were administered to rodents (mice or rats) either orally, subcutaneously or intravenously. To determine blood or plasma concentrations blood samples were taken at different time points and analysed for the concentration of test compound by LC/MS. Brain concentrations were measured by sacrificing animals and LC/MS analysis of brain homogenate. FIG. 2 illustrates graphs for the concentration (ng/ml) Compound (2) in blood, blood plasma and in the brain at 30 minutes to 7 hours after oral treatment.

[3] = tested on: EAE C57BL/6J mice; assay: Experimental autoimmune encephalomyelitis (EAE) mouse model of multiple sclerosis; format: in vivo; settings: 75 mg/kg orally BID for 14 days
Method: C57BL/6 mice are the most commonly used strain. For the induction of EAE, typically, the immunogenic epitope MOG35-55 of myelin oligodendrocyte glycoprotein is suspended in complete Freund's adjuvant (CFA) prior to immunization. Thereafter, pertussis toxin (PT) is applied on the day of immunization and a couple of days later to facilitate the induction of EAE. Animals are assessed by body weight change, EAE scoring and histopathological examination for both inflammation and demyelination.
Compound (2) was dissolved at a dose level of 75 mg/kg with a final concentration of 20 mg/ml (in 66.6% PEG/water), and administered orally BID (i.e. every 12 hours) to C57BL/6J mice at a dose volume of 3.75 ml/kg. Treatment was started concomitant with the first signs of disease (around days 10-12) and continued for 14 days. The animals were evaluated for general clinical signs, body weight change and neurological score. After termination of treatment the animals were sacrificed, brains and spinal cords were collected, fixed in formalin 4% and processed for staining with haematoxylin and eosin.

[4] = tested on: kainic acid treated NMRI mice; assay: Kainic acid model of epilepsy; format: in vivo, Male NMRI mice; settings: 150 mg/kg for 3 consecutive days, kainic acid 45 mg/kg s.c., n=21
Method: Male NMRI mice (n=21) were given 150 mg/kg of Compound (2) (60% PEG400/water solution) for 3 consecutive days. 2 hours after the last dose the animals were given subcutaneously 45 mg/kg of kainic acid. Behaviour was monitored for 3 hours. On day 7 after receiving kainic acid the animals were sacrificed and brain analysed by immunohistochemistry for markers of neurodegeneration.

[5] = FVB/N, mouse, brain, read-out: Tmax Brain
[6] = FVB/N, mouse, plasma, read-out: Cmax Plasma
[7] = FVB/N, mouse, plasma, read-out: T1/2 Plasma (converted)
[8] = FVB/N, mouse, plasma, read-out: Tmax Plasma
[9] = FVB/N, mouse, whole blood, read-out: Cmax Whole blood
[10] = FVB/N, mouse, whole blood, read-out: T1/2 Whole blood (converted)
[11] = FVB/N, mouse, whole blood, read-out: Tmax Whole blood
[12] = vs vehicle group, not statistically significant

Compound: CC(C)[C@@H]1OC(=O)C(C)(C)/C=C/c2ccc3ccc(nc3c2)N(C)NC(=O)[C@@H]2CCCN(N2)C(=O)[C@H](C)NC1=O [Compound (2)]
- Kp ([1]; FVB/N, mouse, brain and blood): 0.9
- Tmax [1, 5]: 2 h
- Cmax [1, 6]: 1640 ng/mL
- half-life [1, 7]: 1.77 h
- Tmax [1, 8]: 0.5 h
- Cmax [1, 9]: 2640 ng/mL
- half-life [1, 10]: 3.17 h
- Tmax [1, 11]: 0.5 h
- AUC0-t Brain [1]: 3370 ng/mL/h
- AUC0-t Plasma [1]: 3730 ng/mL/h
- AUC0-t Whole blood [1]: 8150 ng/mL/h
- Blood/plasma [1]: 2.2 Ratio
- Cmax Brain [1]: 563 ng/mL
- Kp ([2]; FVB/N, mouse, brain and blood): 0.72
- Tmax [2, 5]: 7 h
- Cmax [2, 6]: 582 ng/mL
- half-life [2, 7]: 3 h
- Tmax [2, 8]: 0.5 h
- Cmax [2, 9]: 1490 ng/mL
- half-life [2, 10]: 5.45 h
- Tmax [2, 11]: 0.5 h
- AUC0-t Plasma [2]: 3180 ng/mL/h
- AUC0-t Whole blood [2]: 12500 ng/mL/h
- Blood/plasma [2]: 2.87 Ratio
- Cmax Brain [2]: 297 ng/mL
- Extent of spinal cord damage ([3]; vs untreated control, FIG. 4): significant reduction
- Body weight gain [3, 12]: better body weight gain
- Clinical score [3, 12]: reduction in the clinical score
- Number of animals with visible signs of neurodegeneration ([4]; control group 5 animals): 2 animals
- Percent of animals with visible signs of neurodegeneration ([4]; control group 24%): 9%
